Drawing on article PMC8764865, “Activity-based protein profiling reveals dynamic substrate-specific cellulase secretion by saprotrophic basidiomycetes” (Biotechnology for Biofuels and Bioproducts, 2022), this text covers Ki and ki/KI for two compounds.

What all share (assay type): biochemical
Assay [1] concerns the target T1, LsGH10A (Trametes sp., UniProt Z9JQD7XB80).
T1 construct: native signal peptide removed (alpha-factor secretion signal), C-terminal 6xHis, codon-optimised, Pichia pastoris X-33; later-eluting Superdex 200 peak
Put plainly: continuous fluorogenic inhibition kinetics (4-methylumbelliferyl glycoside). The conditions noted are these: non-covalent; no covalent inhibition discernible after 1 h; 50 mM NaOAc pH 4.0 final; inhibition assay, printed only as affinity.

The target in assay [2] is T1, LsGH10A. Put plainly: continuous fluorogenic inhibition kinetics, 4MU-GG substrate. The conditions noted are these: covalent, time-dependent; up to 50 uM inhibitor; 0.4 mM substrate stock mixed 1:1; NaOAc pH 4.0.
Another assay has as its target T2, TlGH12A (Pilatotrama ljubarskyi, UniProt Z9OT85M9A7).
T2 construct: native signal peptide removed (alpha-factor secretion signal), C-terminal 6xHis, codon-optimised, Pichia pastoris X-33
T2 sequence (Z9OT85M9A7 1-225): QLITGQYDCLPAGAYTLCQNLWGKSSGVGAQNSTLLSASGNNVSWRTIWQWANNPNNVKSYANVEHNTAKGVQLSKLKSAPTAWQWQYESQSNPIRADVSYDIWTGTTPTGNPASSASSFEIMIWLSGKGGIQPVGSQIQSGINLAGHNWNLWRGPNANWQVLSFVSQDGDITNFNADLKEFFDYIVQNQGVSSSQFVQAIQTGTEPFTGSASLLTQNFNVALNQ
The description is as above. Conditions: covalent, time-dependent; up to 50 uM inhibitor; 0.4 mM substrate stock mixed 1:1; NaOAc pH 4.0.

The target in the next assay is T3, LsGH5_5A (Trametes sp., UniProt Z9YXY2URI3).
T3 construct: native signal peptide removed (alpha-factor secretion signal), C-terminal 6xHis (intact), codon-optimised, Pichia pastoris X-33
T3 sequence (Z9YXY2URI3 1-398): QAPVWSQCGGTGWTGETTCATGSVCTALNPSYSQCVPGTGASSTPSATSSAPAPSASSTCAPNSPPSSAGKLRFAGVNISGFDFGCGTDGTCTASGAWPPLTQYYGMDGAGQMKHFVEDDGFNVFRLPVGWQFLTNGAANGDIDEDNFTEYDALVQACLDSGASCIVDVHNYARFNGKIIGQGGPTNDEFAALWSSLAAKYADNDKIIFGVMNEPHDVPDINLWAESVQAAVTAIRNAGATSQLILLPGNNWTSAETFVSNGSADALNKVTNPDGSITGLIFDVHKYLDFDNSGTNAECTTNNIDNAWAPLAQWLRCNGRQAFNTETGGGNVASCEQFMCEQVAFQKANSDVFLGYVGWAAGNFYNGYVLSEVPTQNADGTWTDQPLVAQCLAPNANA
The description is as above. The conditions noted are these: covalent, time-dependent; up to 50 uM inhibitor; 0.4 mM substrate stock mixed 1:1; NaOAc pH 4.0.

Structures are written as SMILES. pKi: −log10 of the molar value.

In general, pKi refers to the Ki on a negative log10 scale, so that one unit is a factor of ten. A lower pKi goes with a large Ki. On LsGH10A [1], `O=C(CCCC[C@@H]1SC[C@@H]2NC(=O)N[C@@H]21)NCCCCCCCCN1[C@H]2[C@H](O)[C@@H](O)[C@H](O[C@@H]3OC[C@@H](O)[C@H](O)[C@H]3O)C[C@H]21` (stereo partly shown) [Biotin-ABP-Xyn] showed a pKi of 7.68.
For `OC[C@H]1[C@H]2O[C@H]2[C@H](O)[C@@H](O)[C@@H]1O[C@@H]1O[C@H](CO)[C@@H](O)[C@H](O)[C@H]1O` [GGcyc], the ki/KI entry on LsGH10A [2] is “clear time-dependent inhibition of LsGH5_5A, TlGH12A, and LsGH10A by GGcyc”; at TlGH12A, “clear time-dependent inhibition of LsGH5_5A, TlGH12A, and LsGH10A by GGcyc”; at LsGH5_5A, “clear time-dependent inhibition of LsGH5_5A, TlGH12A, and LsGH10A by GGcyc”.
